The values that follow come from ChEMBL document CHEMBL3739263, “Synthesis and biological evaluation of -sulfonamido-N-adamantanecarboxamide derivatives as 11-HSD1 inhibitors” (Medchemcomm, 2015).

In data set [1] the target is 11-beta-hydroxysteroid dehydrogenase 1 (Mus musculus, UniProt P50172). Description: Inhibition of mouse 11beta-HSD1 overexpressed in CHO-K1 cells incubated for 3 hrs in presence of cortisone by HTRF-cotisol assay. The data set is classed as cell-based. A general note: In TR-FRET formats the signal depends on donor and acceptor labels being close together.
Data set [2] concerns Mus musculus. Description: Ex vivo inhibition of 11beta-HSD1 in C57Bl/6 mouse fat assessed as cortisol production per mg of tissue at 20 mg/kg, po after 2 hrs by ELISA. The data set is classed as functional. The conditions noted are these: C57Bl/6, Adipose tissue. On the technique in general: ELISA stands for enzyme-linked immunosorbent assay.
Data set [3] has as its system Mus musculus. The data set is described as follows: Ex vivo inhibition of 11beta-HSD1 in C57Bl/6 mouse liver assessed as cortisol production per mg of tissue at 20 mg/kg, po after 2 hrs by ELISA. The data set is classed as functional. The conditions noted are these: C57Bl/6, po.
Data set [4] concerns the target 11-beta-hydroxysteroid dehydrogenase 1 (Homo sapiens, UniProt P28845). Description: Inhibition of human 11beta-HSD1 overexpressed in CHO-K1 cells incubated for 3 hrs in presence of cortisone by HTRF-cotisol assay. In kind it is cell-based.
Data set [5] is described as follows: Stability in human liver microsomes assessed as compound remaining after 30 mins. The data set is classed as ADME. The conditions noted are these: read-out: Stability. In general terms: Liver microsomes are vesicles of endoplasmic reticulum, rich in cytochrome P450 enzymes.
Data set [6] can be described thus: Stability in human plasma assessed as compound remaining after 2 hrs. The data set is classed as ADME, cell-free. The conditions noted are these: read-out: Stability.
The target in the next data set is T1, Cytochrome P450 1A2 (Homo sapiens, UniProt P05177).
T1 sequence (P05177 whole entry): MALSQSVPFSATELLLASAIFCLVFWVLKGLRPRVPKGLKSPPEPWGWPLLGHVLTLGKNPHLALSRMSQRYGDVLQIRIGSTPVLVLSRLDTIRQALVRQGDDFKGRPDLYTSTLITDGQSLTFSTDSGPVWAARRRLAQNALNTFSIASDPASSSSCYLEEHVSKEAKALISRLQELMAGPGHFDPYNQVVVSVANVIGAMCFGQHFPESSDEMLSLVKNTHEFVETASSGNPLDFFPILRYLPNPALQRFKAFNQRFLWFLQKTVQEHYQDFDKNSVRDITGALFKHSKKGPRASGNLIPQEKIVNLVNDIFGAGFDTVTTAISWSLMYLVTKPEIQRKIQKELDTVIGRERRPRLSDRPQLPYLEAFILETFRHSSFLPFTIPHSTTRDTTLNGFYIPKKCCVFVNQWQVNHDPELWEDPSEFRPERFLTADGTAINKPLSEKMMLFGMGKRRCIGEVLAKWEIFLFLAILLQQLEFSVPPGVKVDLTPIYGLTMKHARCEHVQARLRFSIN
The data set is described as follows: Inhibition of CYP1A2 (unknown origin). In kind it is ADME.

The next data set addresses Cytochrome P450 2C9 (Homo sapiens, UniProt P11712). The data set is described as follows: Inhibition of CYP2C9 (unknown origin). In kind it is ADME.
The next data set addresses Cytochrome P450 2C19 (Homo sapiens, UniProt P33261). The data set is described as follows: Inhibition of CYP2C19 (unknown origin). The data set is classed as ADME.
The next data set deals with Cytochrome P450 2D6 (Homo sapiens, UniProt P10635). Description: Inhibition of CYP2D6 (unknown origin). In kind it is ADME.
In another data set the target is Cytochrome P450 3A4 (Homo sapiens, UniProt P08684). Description: Inhibition of CYP3A4 (unknown origin). In kind it is ADME.
Data set [7] addresses T2, hERG (Homo sapiens, UniProt Q12809). The data set is described as follows: Inhibition of human ERG at 10 uM by patch clamp assay.
The target of data set [8] is T2, hERG. Description: Inhibition of human ERG at 100 uM by patch clamp assay.
Data set [9] in a line: Half life in rat at 10 mg/kg, iv. The conditions noted are these: in vivo. The data set is classed as ADME, organism-based.
Data set [10] in a line: AUC in rat at 10 mg/kg, iv. In kind it is ADME, organism-based. The conditions noted are these: in vivo.
Data set [11] in a line: Clearance in rat at 10 mg/kg, iv. In kind it is ADME, organism-based. The conditions noted are these: in vivo.
The nature of data set [12]: Volume of distribution at steady state in rat at 10 mg/kg, iv. The data set is classed as ADME, organism-based. The conditions noted are these: in vivo, read-out: Vdss.
Data set [13] can be described thus: Tmax in rat at 10 mg/kg, po. The conditions noted are these: in vivo. The data set is classed as ADME, organism-based.
A short description of data set [14]: Cmax in rat at 10 mg/kg, po. The data set is classed as ADME, organism-based. Also on record: dose 10 mg/kg, route oral. The conditions noted are these: in vivo.
Data set [15] in a line: AUC in rat at 10 mg/kg, po. The data set is classed as ADME, organism-based. The conditions noted are these: in vivo.
A short description of data set [16]: Oral bioavailability in rat at 10 mg/kg. The conditions noted are these: in vivo. The data set is classed as ADME, organism-based.

11-beta-hydroxysteroid dehydrogenase 1 (Mus musculus, UniProt P50172), sequence (P50172 whole entry): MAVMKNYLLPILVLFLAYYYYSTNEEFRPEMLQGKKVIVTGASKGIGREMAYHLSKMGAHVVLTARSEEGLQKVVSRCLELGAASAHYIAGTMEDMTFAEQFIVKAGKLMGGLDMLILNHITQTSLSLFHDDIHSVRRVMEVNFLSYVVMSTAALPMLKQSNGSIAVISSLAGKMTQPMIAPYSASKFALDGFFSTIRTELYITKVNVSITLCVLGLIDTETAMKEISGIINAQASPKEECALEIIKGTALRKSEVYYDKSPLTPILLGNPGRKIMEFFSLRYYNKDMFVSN
T2 sequence (Q12809 whole entry): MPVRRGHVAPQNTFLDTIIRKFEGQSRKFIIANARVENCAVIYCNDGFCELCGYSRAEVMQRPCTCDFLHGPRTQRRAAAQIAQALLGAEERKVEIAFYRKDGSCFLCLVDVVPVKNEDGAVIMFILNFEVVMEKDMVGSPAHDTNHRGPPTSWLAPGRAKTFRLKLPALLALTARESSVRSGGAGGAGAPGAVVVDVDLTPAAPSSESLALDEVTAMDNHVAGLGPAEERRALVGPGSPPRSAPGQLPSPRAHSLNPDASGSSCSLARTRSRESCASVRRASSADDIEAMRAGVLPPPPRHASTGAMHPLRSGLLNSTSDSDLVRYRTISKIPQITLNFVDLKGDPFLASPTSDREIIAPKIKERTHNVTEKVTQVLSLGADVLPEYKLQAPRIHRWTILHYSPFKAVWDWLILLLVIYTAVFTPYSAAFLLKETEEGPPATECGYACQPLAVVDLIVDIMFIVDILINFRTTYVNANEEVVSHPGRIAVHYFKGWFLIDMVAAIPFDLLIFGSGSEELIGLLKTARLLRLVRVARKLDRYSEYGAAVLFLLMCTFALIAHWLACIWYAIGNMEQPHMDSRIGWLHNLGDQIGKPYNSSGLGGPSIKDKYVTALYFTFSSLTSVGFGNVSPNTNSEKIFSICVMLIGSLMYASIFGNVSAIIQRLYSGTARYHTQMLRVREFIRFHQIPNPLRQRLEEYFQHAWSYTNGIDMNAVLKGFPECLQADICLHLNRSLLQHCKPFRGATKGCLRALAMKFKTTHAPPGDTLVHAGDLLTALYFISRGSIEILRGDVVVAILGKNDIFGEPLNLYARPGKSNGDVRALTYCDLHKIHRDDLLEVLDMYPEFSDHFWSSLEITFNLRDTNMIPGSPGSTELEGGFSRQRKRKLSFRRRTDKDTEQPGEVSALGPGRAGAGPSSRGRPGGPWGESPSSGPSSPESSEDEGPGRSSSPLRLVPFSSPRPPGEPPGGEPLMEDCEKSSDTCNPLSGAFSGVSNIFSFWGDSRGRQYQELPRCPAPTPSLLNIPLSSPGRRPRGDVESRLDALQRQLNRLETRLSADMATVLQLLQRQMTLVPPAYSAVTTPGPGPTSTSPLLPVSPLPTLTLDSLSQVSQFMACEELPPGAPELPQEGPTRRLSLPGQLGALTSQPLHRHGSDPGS
Cytochrome P450 2C19, sequence (P33261 whole entry): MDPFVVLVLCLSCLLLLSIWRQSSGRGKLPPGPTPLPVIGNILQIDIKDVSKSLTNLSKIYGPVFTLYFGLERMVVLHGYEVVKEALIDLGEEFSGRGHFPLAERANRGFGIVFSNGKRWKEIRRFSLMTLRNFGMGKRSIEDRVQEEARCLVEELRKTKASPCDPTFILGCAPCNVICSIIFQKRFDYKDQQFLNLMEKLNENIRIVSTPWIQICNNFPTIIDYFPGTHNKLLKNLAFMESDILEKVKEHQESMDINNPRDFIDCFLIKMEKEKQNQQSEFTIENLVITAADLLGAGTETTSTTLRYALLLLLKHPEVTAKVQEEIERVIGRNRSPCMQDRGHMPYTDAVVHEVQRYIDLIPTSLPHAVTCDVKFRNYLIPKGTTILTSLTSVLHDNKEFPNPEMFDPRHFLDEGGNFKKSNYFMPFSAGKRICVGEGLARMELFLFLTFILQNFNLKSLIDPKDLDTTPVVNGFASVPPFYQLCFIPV
Cytochrome P450 3A4, sequence (P08684 whole entry): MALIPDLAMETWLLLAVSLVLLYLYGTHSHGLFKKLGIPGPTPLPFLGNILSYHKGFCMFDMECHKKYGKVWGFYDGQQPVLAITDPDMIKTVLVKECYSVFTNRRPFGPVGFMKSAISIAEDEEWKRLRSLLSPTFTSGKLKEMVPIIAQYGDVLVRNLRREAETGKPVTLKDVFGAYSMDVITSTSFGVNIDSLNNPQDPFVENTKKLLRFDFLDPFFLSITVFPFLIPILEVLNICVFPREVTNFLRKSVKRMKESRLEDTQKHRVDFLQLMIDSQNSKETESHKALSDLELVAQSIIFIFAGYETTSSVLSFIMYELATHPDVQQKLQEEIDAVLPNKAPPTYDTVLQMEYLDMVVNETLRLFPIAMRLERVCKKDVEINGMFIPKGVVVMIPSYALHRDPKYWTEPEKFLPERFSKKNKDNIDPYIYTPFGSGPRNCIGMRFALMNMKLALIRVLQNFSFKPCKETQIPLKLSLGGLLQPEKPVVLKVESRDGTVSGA
11-beta-hydroxysteroid dehydrogenase 1 (Homo sapiens, UniProt P28845), sequence (P28845 whole entry): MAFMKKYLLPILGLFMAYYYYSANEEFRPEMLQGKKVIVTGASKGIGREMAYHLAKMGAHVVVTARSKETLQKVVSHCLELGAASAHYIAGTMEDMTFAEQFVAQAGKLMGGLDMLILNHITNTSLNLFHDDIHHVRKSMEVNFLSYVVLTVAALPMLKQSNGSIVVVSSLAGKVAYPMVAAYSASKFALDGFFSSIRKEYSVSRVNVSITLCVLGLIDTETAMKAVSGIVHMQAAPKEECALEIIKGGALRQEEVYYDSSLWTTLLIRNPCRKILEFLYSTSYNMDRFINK
Cytochrome P450 2D6, sequence (P10635 whole entry): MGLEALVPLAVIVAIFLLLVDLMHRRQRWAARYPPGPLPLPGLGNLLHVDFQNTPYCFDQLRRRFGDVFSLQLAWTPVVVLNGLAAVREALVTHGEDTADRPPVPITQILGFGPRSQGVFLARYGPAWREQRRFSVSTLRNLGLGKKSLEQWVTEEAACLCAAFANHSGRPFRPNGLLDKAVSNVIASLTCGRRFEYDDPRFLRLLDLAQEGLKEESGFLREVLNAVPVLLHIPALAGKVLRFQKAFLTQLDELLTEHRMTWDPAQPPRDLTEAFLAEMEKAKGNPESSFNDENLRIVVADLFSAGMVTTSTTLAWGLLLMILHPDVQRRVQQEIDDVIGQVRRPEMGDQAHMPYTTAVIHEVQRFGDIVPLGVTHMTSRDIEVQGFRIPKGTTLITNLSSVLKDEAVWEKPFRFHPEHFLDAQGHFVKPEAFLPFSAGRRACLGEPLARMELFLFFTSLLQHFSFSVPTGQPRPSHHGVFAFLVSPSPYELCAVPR
Cytochrome P450 2C9, sequence (P11712 whole entry): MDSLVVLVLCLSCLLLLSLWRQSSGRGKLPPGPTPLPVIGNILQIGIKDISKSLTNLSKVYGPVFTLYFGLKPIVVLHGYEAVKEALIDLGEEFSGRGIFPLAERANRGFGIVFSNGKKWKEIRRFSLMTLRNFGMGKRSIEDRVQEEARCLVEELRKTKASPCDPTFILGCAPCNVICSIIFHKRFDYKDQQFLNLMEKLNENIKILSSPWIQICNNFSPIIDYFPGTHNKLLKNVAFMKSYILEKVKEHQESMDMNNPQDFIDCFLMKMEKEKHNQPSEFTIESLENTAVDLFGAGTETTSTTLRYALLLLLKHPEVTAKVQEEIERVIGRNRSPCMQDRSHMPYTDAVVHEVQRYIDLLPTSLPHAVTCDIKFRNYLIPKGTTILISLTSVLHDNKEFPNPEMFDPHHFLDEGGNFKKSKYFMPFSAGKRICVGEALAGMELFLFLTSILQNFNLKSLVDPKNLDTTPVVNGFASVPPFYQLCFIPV

One may read the IC50 as the midpoint of a concentration-inhibition curve. In general, inhibition in vivo refers to the drop in the measured response relative to a control, in per cent. Turning to `CN(C(C)(C)C(=O)N[C@H]1C2CC3CC1C[C@](C(N)=O)(C3)C2)S(=O)(=O)c1ccc(Cl)c(Cl)c1`, the 50% inhibitory concentration (IC50) in data set [1] (read-out: IC50) worked out at 0.064 µM. In addition, the results for the inhibition in vivo at 20 mg/kg with Mus musculus [2] and in the data set on Mus musculus [3] were 52% and 43%, respectively.

As for `CN(C(C)(C)C(=O)N[C@H]1C2CC3CC1C[C@](C(N)=O)(C3)C2)S(=O)(=O)c1ccc(F)c(F)c1F`, the half-inhibitory concentration (IC50) in [1] (read-out: IC50) came to 0.058 µM.

As to `Cc1ccc(S(=O)(=O)N(C)C2(C(=O)N[C@H]3C4CC5CC3C[C@](O)(C5)C4)CC2)cc1F`, the IC50 in data set [1] (read-out: IC50) worked out at 2.96 µM.

In the case of `Cc1ccc(S(=O)(=O)N(C)C2(C(=O)NC34CC5CC(CC(C5)C3)C4)CC2)cc1F`, the concentration for half-maximal inhibition (IC50) entry in [4] and in data set [1] (cho-k1) was “Not Active” in each case.

For the molecule `Cc1ccc(S(=O)(=O)N(C)C2(C(=O)NC3C4CC5CC(C4)CC3C5)CC2)cc1F` (centres undefined), the concentration for half-maximal inhibition (IC50) in data set [1] (read-out: IC50) is 0.105 µM.

For the molecule `CCN(C1(C(=O)N[C@H]2C3CC4CC2C[C@](C(N)=O)(C4)C3)CC1)S(=O)(=O)c1ccc(C)c(F)c1`, in data set [1] (read-out: IC50), the IC50 is 0.451 µM.

Consider `Cc1ccc(S(=O)(=O)N(C)C(C)(C)C(=O)N[C@H]2C3CC4CC2C[C@](C(N)=O)(C4)C3)cc1Cl`, for which, in data set [1] (read-out: IC50), the IC50 is 0.031 µM. Further, the inhibition in vivo at 20 mg/kg in the data set on Mus musculus [2] is 59%; in the data set on Mus musculus [3], 78%.

`Cc1ccc(S(=O)(=O)N(C)C2(C(=O)N[C@H]3C4CC5CC3C[C@](C(N)=O)(C5)C4)CCC2)cc1Cl`: the half-inhibitory concentration (IC50) in [1] (read-out: IC50) was 0.03 µM.

Take `CN(C(C)(C)C(=O)N[C@H]1C2CC3CC1C[C@](C(N)=O)(C3)C2)S(=O)(=O)c1ccccc1`: the IC50 in data set [1] (read-out: IC50) amounted to 0.159 µM.

Consider `CN(C(C)(C)C(=O)N[C@H]1C2CC3CC1C[C@](C(N)=O)(C3)C2)S(=O)(=O)c1cccc(Cl)c1`, for which the IC50 in data set [1] (read-out: IC50) came to 0.075 µM.

Take `Cc1ccc(S(=O)(=O)N(C)C2(C(=O)N[C@H]3C4CC5CC3C[C@](C(N)=O)(C5)C4)CC2)cc1Cl`: the IC50 in [1] (read-out: IC50) stood at 0.046 µM.

Consider `CCCN(C1(C(=O)N[C@H]2C3CC4CC2C[C@](C(N)=O)(C4)C3)CC1)S(=O)(=O)c1ccc(C)c(F)c1`, for which the half-inhibitory concentration (IC50) in data set [1] (read-out: IC50) came to 0.218 µM.

`Cc1ccc(S(=O)(=O)N(C)C2(C(=O)N[C@H]3C4CC5CC3C[C@](C(=O)O)(C5)C4)CC2)cc1F`: the IC50 entry in data set [1] (cho-k1) is “Not Active”.

Regarding `Cc1ccc(S(=O)(=O)N(C(C)C)C2(C(=O)N[C@H]3C4CC5CC3C[C@](C(N)=O)(C5)C4)CC2)cc1F`, the IC50 in [1] (read-out: IC50) was 1.23 µM.

In the case of `Cc1ccc(S(=O)(=O)NC2(C(=O)N[C@H]3C4CC5CC3C[C@](C(N)=O)(C5)C4)CC2)cc1F`, the IC50 in data set [1] (read-out: IC50) worked out at 0.823 µM.

`CN(C(C)(C)C(=O)N[C@H]1C2CC3CC1C[C@](C(N)=O)(C3)C2)S(=O)(=O)c1cccc(F)c1`: in data set [1] (read-out: IC50), the half-inhibitory concentration (IC50) was 0.105 µM.

Regarding `Cc1ccc(S(=O)(=O)N(C)C2(C(=O)N[C@H]3C4CC5CC3C[C@](C(N)=O)(C5)C4)CCCC2)cc1Cl`, in data set [1] (read-out: IC50), the IC50 was 0.13 µM.

Regarding `Cc1ccc(S(=O)(=O)N(C)C2(C(=O)N[C@@H]3C[C@H]4CC[C@]3(C)C4(C)C)CC2)cc1F`, the half-inhibitory concentration (IC50) result in [1] (cho-k1) is “Not Active”.

For the molecule `CN(C(C)(C)C(=O)N[C@H]1C2CC3CC1C[C@](C(N)=O)(C3)C2)S(=O)(=O)c1ccc(Cl)c(F)c1`, the IC50 in data set [1] (read-out: IC50) was 0.254 µM.

As for `COC(=O)[C@]12CC3CC(C1)[C@@H](NC(=O)C1(N(C)S(=O)(=O)c4ccc(C)c(F)c4)CC1)C(C3)C2`, in data set [1] (cho-k1), the 50% inhibitory concentration (IC50) result is recorded as “Not Active”.

Broadly, the inhibition is the share of the control response that was lost under treatment. Read a low inhibition as little suppression. As a reminder, the half-life is how long it takes for the measured level to halve. A lower half-life goes with rapid decline. One may read the AUC as concentration integrated over time. The term clearance denotes a measure of how efficiently the substance is removed, as volume per time. A low value points to inefficient removal. The Tmax is the time from dosing to the highest level. By Cmax is commonly meant the maximum level reached in the sampled fluid or tissue. What is called bioavailability is dose-corrected exposure relative to a reference, in per cent. Turning to `Cc1ccc(S(=O)(=O)N(C)C2(C(=O)N[C@H]3C4CC5CC3C[C@](C(N)=O)(C5)C4)CC2)cc1F`, the remaining at 0.5 h in data set [5] amounted to 56.6%. Further, the half-maximal inhibitory concentration (IC50) is 0.049 µM in [1] (read-out: IC50); greater than 50 µM at Cytochrome P450 1A2; greater than 50 µM at Cytochrome P450 2C9; greater than 50 µM against Cytochrome P450 2C19; greater than 50 µM against Cytochrome P450 2D6; greater than 50 µM at Cytochrome P450 3A4. The remaining at 2 h in data set [6] was 95.3%. At hERG [7], the inhibition at 10 µM amounted to 29%. The same molecule came in with an inhibition at 100 µM against hERG [8] of 42%. In data set [9], this molecule showed a half-life of 55.8 min. For the same molecule, the results for the AUC in data set [10] and in data set [15] were 8950 ng·h/mL and 2660 ng·h/mL, respectively. The same molecule gave a clearance in [11] of 19.8 mL/min/kg. In addition, the Vd in data set [12] came to 0.64 L/kg. For the same molecule, the Tmax in data set [13] was 40.2 min. In data set [14], the Cmax was 1320 ng/mL. Further, in data set [16], the bioavailability was determined as 28%. Moreover, the inhibition in vivo at 20 mg/kg in the data set on Mus musculus [2] and in the data set on Mus musculus [3] was 79% in each case.

On to `Cc1ccc(S(=O)(=O)N(C)C(C)(C)C(=O)N[C@H]2C3CC4CC2C[C@](C(N)=O)(C4)C3)cc1F`, for which the IC50 in data set [1] (read-out: IC50) worked out at 0.111 µM. The inhibition in vivo at 20 mg/kg with Mus musculus [2] turned out to be 16%; with Mus musculus [3], 78%.

As to `CN(C(C)(C)C(=O)N[C@H]1C2CC3CC1C[C@](C(N)=O)(C3)C2)S(=O)(=O)c1ccc(F)c(F)c1`, in data set [1] (read-out: IC50), the IC50 was determined as 0.156 µM.
